According to patent publication US20220289732A1, “HETEROCYCLIC WDR5 INHIBITORS AS ANTI-CANCER COMPOUNDS” (NOVARTIS AG, priority 2019, published 2022):

Tests used:
[1] = target: WDR5 (Homo sapiens, UniProt P61964); assay: WDR5 HTRF binding assay; conditions: read-out: (a) WDR5 HTRF Pep Val v.1[Inhibitor/IC50]Qualified AC50
Method in brief: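 6 nM WDR5 and 20 nM biotin-MLL1 WIN peptide (3762-3773) were incubated with compound (12-point, 3-fold dilutions) in pH 7.5 Hepes/NaCl/DTT buffer for 20 min at rt. Streptavidin-APC plus anti-His-Eu were then added for 1 hr, with HTRF read at 665/615. IC50 was fit from control-normalized activity; the counter assay used 15 nM biotin-PEG-His peptide.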

[2] = target: wild type MLL1 four-member complex (MLL1-4C) (Homo sapiens, UniProt P61964); assay: MLL1 LC-MS assay (SAH production); format: biochemical; conditions: read-out: (b) MLL LCMS Peptide Val.v.1 Qualified AC50
Method in brief: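 MLL1-4C (30 nM final) was preincubated 20 min with compound (3-fold dilutions, 8 or 12 points) and SAM in Tris-HCl pH 8.0 buffer. H3K4me0 peptide (histone H3[1-21]-biotin) was then added, giving final 2.5 μM SAM and 10 μM substrate, and reactions ran 120 min at rt. After TFA/d4-SAH quench, SAH was quantified by LC-MS/MS and IC50 fitted from control-normalised activity.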

[3] = tested on: MV4-11 cells; assay: MV4-11 6-day cell growth CTG (CellTiter-Glo) assay; format: cell-based; conditions: Homo sapiens, MV4-11, 144 h, 6 days, read-out: (c) MLL/WDR5 cell proliferation assay//MLL/WDR5 proliferation MV4:11 Qualified AC50
Method in brief: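 Exponentially growing MV4-11 AML cells (RPMI 1640, 10% FBS) seeded at 300 cells/well with 12-point 1:3 compound dilutions, top final concentration 50 μM. Viability read by CellTiter-Glo luminescence after 6 days at 37° C; % inhibition vs DMSO-only wells fitted to dose-response for IC50.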

Row | Compound | IC50 [1] [nM] | AC50 [2] [nM] | AC50 [3] [nM]
1 | CCOc1cc(C(C)N2CCc3c(cc(CCN(C)CC)cc3-c3cc(C(C)O)cnc3Cl)C2=O)ncc1C#N (stereo not drawn) [Example 153, 6-(1-(5-(2-chloro-5-(1-hydroxyethyl)pyridin-3-yl)-7-(2-(ethyl(methyl)amino)ethyl)-1-oxo-3,4-dihydroisoquinolin-2(1H)-yl)ethyl)-4-ethoxynicotinonitrile] | 10 to 1000 | 10 to 1000 | 10 to 1000
2 | CCOc1cc(CN2CCc3c(cc(CCN(C)CC)cc3-c3cc(C)ncc3F)C2=O)ncc1C#N [Example 154, 4-ethoxy-6-((7-(2-(ethyl(methyl)amino)ethyl)-5-(5-fluoro-2-methylpyridin-4-yl)-1-oxo-3,4-dihydroisoquinolin-2(1H)-yl)methyl)nicotinonitrile] | 10 to 1000 | 10 to 1000 | 10 to 1000
3 | CCOc1cc(CN2CCc3c(cc(CCN(C)CC)cc3-c3ccc(N)nc3C)C2=O)ncc1C#N [Example 155, 6-((5-(6-amino-2-methylpyridin-3-yl)-7-(2-(ethyl(methyl)amino)ethyl)-1-oxo-3,4-dihydroisoquinolin-2(1H)-yl)methyl)-4-ethoxynicotinonitrile] | 10 to 1000 | 10 to 1000 | 10 to 1000
4 | CCOc1cc(C(C)N2CCc3c(cc(CCN(C)CC)cc3C3CC3)C2=O)ncc1C#N (stereo not drawn) [Example 158, 6-(1-(5-cyclopropyl-7-(2-(ethyl(methyl)amino)ethyl)-1-oxo-3,4-dihydroisoquinolin-2(1H)-yl)ethyl)-4-ethoxynicotinonitrile] | 10 to 1000 | 10 to 1000 | 1000 to 25000
5 | CCOc1cc([C@H](C)N2CCc3c(cc(CCN(C)CC)cc3-c3cc(C4CC4)cnc3C)C2=O)ncc1C#N [Example 160, (S)-6-(1-(5-(5-cyclopropyl-2-methylpyridin-3-yl)-7-(2-(ethyl(methyl)amino)ethyl)-1-oxo-3,4-dihydroisoquinolin-2(1H)-yl)ethyl)-4-ethoxynicotinonitrile] | < 10 | 10 to 1000 | 10 to 1000
6 | CCOc1cc(CN2CCc3c(cc(CCN(C)CC)cc3-c3cc(OC)ncc3C)C2=O)ncc1C#N [Example 164, 4-ethoxy-6-((7-(2-(ethyl(methyl)amino)ethyl)-5-(2-methoxy-5-methylpyridin-4-yl)-1-oxo-3,4-dihydroisoquinolin-2(1H)-yl)methyl)nicotinonitrile] | < 10 | 10 to 1000 | 10 to 1000
7 | CCOc1cc([C@H](C)N2CCc3c(cc(CCN(C)CC)cc3-c3cn(CC)nc3C(F)F)C2=O)ncc1C#N [Example 165, (S)-6-(1-(5-(3-(difluoromethyl)-1-ethyl-1H-pyrazol-4-yl)-7-(2-(ethyl(methyl)amino)ethyl)-1-oxo-3,4-dihydroisoquinolin-2(1H)-yl)ethyl)-4-ethoxynicotinonitrile] | < 10 | 10 to 1000 | 10 to 1000
8 | CCOc1cc([C@H](C)N2CCc3c(cc(CCN(C)CC)cc3-c3cc(OC)cnc3C)C2=O)ncc1C#N [Example 167, (S)-4-ethoxy-6-(1-(7-(2-(ethyl(methyl)amino)ethyl)-5-(5-methoxy-2-methylpyridin-3-yl)-1-oxo-3,4-dihydroisoquinolin-2(1H)-yl)ethyl)nicotinonitrile] | < 10 | 10 to 1000 | 10 to 1000
9 | CCOc1cc(C(C)N2CCc3c(cc(CCN(C)CC)cc3-c3cc(Cl)nnc3Cl)C2=O)ncc1C#N (stereo not drawn) [Example 168, 6-(1-(5-(3,6-dichloropyridazin-4-yl)-7-(2-(ethyl(methyl)amino)ethyl)-1-oxo-3,4-dihydroisoquinolin-2(1H)-yl)ethyl)-4-ethoxynicotinonitrile] | < 10 | 10 to 1000 | 10 to 1000
10 | CCOc1cc([C@H](C)N2CCc3c(cc(CCN(C)CC)cc3-c3cc(C)ncc3C(F)F)C2=O)ncc1C#N [Example 172, (S)-6-(1-(5-(5-(difluoromethyl)-2-methylpyridin-4-yl)-7-(2-(ethyl(methyl)amino)ethyl)-1-oxo-3,4-dihydroisoquinolin-2(1H)-yl)ethyl)-4-ethoxynicotinonitrile] | < 10 | 10 to 1000 | 10 to 1000

Further lines, with some results ahead:

Row | IC50 [1] [nM] | AC50 [2] [nM] | Compound | AC50 [3] [nM]
11 | 10 to 1000 | 10 to 1000 | CCOc1cc([C@@H](C)N2CCc3c(cc(CCN(C)CC)cc3-c3cc(C)cnc3C)C2=O)ncc1C#N [Example 156, (R)-6-(1-(5-(2,5-dimethylpyridin-3-yl)-7-(2-(ethyl(methyl)amino)ethyl)-1-oxo-3,4-dihydroisoquinolin-2(1H)-yl)ethyl)-4-ethoxynicotinonitrile] | 1000 to 25000
12 | 10 to 1000 | 10 to 1000 | CCOc1cc([C@H](C)N2CCc3c(cc(CCN(C)CC)cc3-c3cncn3C)C2=O)ncc1C#N [Example 157, (S)-4-ethoxy-6-(1-(7-(2-(ethyl(methyl)amino)ethyl)-5-(1-methyl-1H-imidazol-5-yl)-1-oxo-3,4-dihydroisoquinolin-2(1H)-yl)ethyl)nicotinonitrile] | 1000 to 25000
13 | < 10 | 10 to 1000 | CCOc1cc([C@H](C)N2CCc3c(cc(CCN(C)CC)cc3-c3ccn(C)c(=O)c3C)C2=O)ncc1C#N [Example 161, (S)-6-(1-(5-(1,3-dimethyl-2-oxo-1,2-dihydropyridin-4-yl)-7-(2-(ethyl(methyl)amino)ethyl)-1-oxo-3,4-dihydroisoquinolin-2(1H)-yl)ethyl)-4-ethoxynicotinonitrile] | 10 to 1000
14 | < 10 | 10 to 1000 | CCOc1cc([C@H](C)N2CCc3c(cc(CCN(C)CC)cc3-c3cc(N)ncc3C)C2=O)ncc1C#N [Example 162, (S)-6-(1-(5-(2-amino-5-methylpyridin-4-yl)-7-(2-(ethyl(methyl)amino)ethyl)-1-oxo-3,4-dihydroisoquinolin-2(1H)-yl)ethyl)-4-ethoxynicotinonitrile] | 10 to 1000
15 | < 10 | 10 to 1000 | CCOc1cc([C@H](C)N2CCc3c(cc(CCN(C)CC)cc3-c3cc(C)ncc3C)C2=O)ncc1C#N [Example 163, (S)-6-(1-(5-(2,5-dimethylpyridin-4-yl)-7-(2-(ethyl(methyl)amino)ethyl)-1-oxo-3,4-dihydroisoquinolin-2(1H)-yl)ethyl)-4-ethoxynicotinonitrile] | 10 to 1000
16 | < 10 | 10 to 1000 | CCOc1cc([C@H](C)N2CCc3c(cc(CCN(C)CC)cc3-c3cc(C)ncc3Cl)C2=O)ncc1C#N [Example 166, (S)-6-(1-(5-(5-chloro-2-methylpyridin-4-yl)-7-(2-(ethyl(methyl)amino)ethyl)-1-oxo-3,4-dihydroisoquinolin-2(1H)-yl)ethyl)-4-ethoxynicotinonitrile] | 10 to 1000
17 | < 10 | 10 to 1000 | CCOc1cc([C@H](C)N2CCc3c(cc(CCN(C)CC)cc3-c3cn(C)c(=O)c(F)c3C)C2=O)ncc1C#N [Example 169, (S)-4-ethoxy-6-(1-(7-(2-(ethyl(methyl)amino)ethyl)-5-(5-fluoro-1,4-dimethyl-6-oxo-1,6-dihydropyridin-3-yl)-1-oxo-3,4-dihydroisoquinolin-2(1H)-yl)ethyl)nicotinonitrile] | 10 to 1000
18 | < 10 | 10 to 1000 | CCOc1cc([C@H](C)N2CCc3c(cc(CCN(C)CC)cc3-c3cn(C)c(=O)c(Cl)c3C)C2=O)ncc1C#N [Example 170, (S)-6-(1-(5-(5-chloro-1,4-dimethyl-6-oxo-1,6-dihydropyridin-3-yl)-7-(2-(ethyl(methyl)amino)ethyl)-1-oxo-3,4-dihydroisoquinolin-2(1H)-yl)ethyl)-4-ethoxynicotinonitrile] | 10 to 1000
19 | < 10 | 10 to 1000 | CCOc1cc([C@H](C)N2CCc3c(cc(CCN(C)CC)cc3-c3cn(CC)c(=O)cc3C)C2=O)ncc1C#N [Example 171, (S)-4-ethoxy-6-(1-(7-(2-(ethyl(methyl)amino)ethyl)-5-(1-ethyl-4-methyl-6-oxo-1,6-dihydropyridin-3-yl)-1-oxo-3,4-dihydroisoquinolin-2(1H)-yl)ethyl)nicotinonitrile] | 10 to 1000
20 | < 10 | 10 to 1000 | CCOc1cc([C@H](C)N2CCc3c(cc(CCN(C)CC)cc3-c3cc(C)nnc3C)C2=O)ncc1C#N [Example 173, (S)-6-(1-(5-(3,6-dimethylpyridazin-4-yl)-7-(2-(ethyl(methyl)amino)ethyl)-1-oxo-3,4-dihydroisoquinolin-2(1H)-yl)ethyl)-4-ethoxynicotinonitrile] | 10 to 1000
21 | < 10 | 10 to 1000 | CCOc1cc([C@H](C)N2CCc3c(cc(CCN(C)CC)cc3-c3cn(C(F)F)c(=O)cc3Cl)C2=O)ncc1C#N [Example 174, (S)-6-(1-(5-(4-chloro-1-(difluoromethyl)-6-oxo-1,6-dihydropyridin-3-yl)-7-(2-(ethyl(methyl)amino)ethyl)-1-oxo-3,4-dihydroisoquinolin-2(1H)-yl)ethyl)-4 ethoxynicotinonitrile] | 10 to 1000
